Consider 20 compounds from patent US8802695B2, “Apoptosis signal-regulating kinase 1 inhibitors” (Takeda Pharmaceutical Company Limited, priority 2010, dated 2014).

In assay [1] the target is T1, ASK1 (Homo sapiens (Human), UniProt Q99683). The experiment in a line: Scintillation assay for inhibitory effect against ASK1 (Example B; myelin basic protein substrate, [γ-32P]ATP). It counts as biochemical. As to conditions: 2.5 μM ATP solution, read-out: Enzyme Activity B IC50. From the text: (§1) The inhibitory effect of the compound of the invention on ASK1 may be evaluated by evaluating the phosphorylating activity of the enzyme on a known substrate with or without the presence of the test compound. Example B provides such an assay where myelin basic protein (Wako) is used as substrate and detection is by scintillation counting. It should be understood other substrates and detection mechanism may be used. A commercially available a kit, Cisbio's HTRF® KinEASE™ STK kit, has shown to be useful for evaluating ASK1 activity. The assay uses an anti-phosphoseric specific, Eu^3+-Cryptate labeled antibody to mark the phosphorylated product of ASK1 on a biotinylated kinase substrate, and detection is by time resolved fluorescence using XL665 labeled streptavidin. The fluorescence intensity is proportional to the amount of product formation. Example C provides the assay protocol.
Cloning of cDNA encoding human ASK1 was conducted by PCR using primers, 5′-[…] […]-3′ (SEQ ID NO: 1) and 5′-AAAGCGGCCGCTCAA […]-3′ (SEQ ID NO: 2), from human heart cDNA library (Becton, Dickinson and Company). The PCR product was subjected to agarose gel (1%) electrophoresis, a 2.2 kb DNA fragment containing an ASK1 gene was recovered from the gel, and then digested with restriction enzymes, NotI and SalI, and inserted into a plasmid pFASTBAC1 (Invitrogen) to prepare a plasmid pFB-ASK1. The insert was verified by sequencing. Recombinant baculovirus was prepared according to the procedure of the Bac-to-Bac baculovirus expression system (Invitrogen).
Sf-21 cells were seeded to achieve 1×10^6 cells/mL in 100 mL of Sf-900 II SFM medium (Invitrogen) which contains 10% fetal calf serum and then cultured at 27° C. for 24 hrs. To express ASK1 in cells, 0.15 mL of the recombinant baculovirus virus stock was added to cells, and the then cultured for 60 hrs. The cells were separated from the culture solution by centrifugation at 3000 rpm for 10 min and washed once with PBS. The cells were suspended in 10 mL of lysis buffer (25 mM HEPES (pH 7.5), 1% Triton X, 130 mM NaCl, 1 mM EDTA, 1 mM DTT, 25 mM (3-glycerophosphate, Protease inhibitor complete (Roche), 1 mM sodium orthovanadate) and ruptured by four times of treatment with a homogenizer (POLYTRON) at 20000 rpm for 30 seconds. Active ASK1 protein was purified from a supernatant obtained by centrifugal separation at 40000 rpm for 45 min using anti-FLAG M2 Affinity Gel (Sigma).
Scintillation Assay for Measuring the Inhibitory Effect of Exemplified Compounds of the Invention Against ASK1
The test compounds (2.5 μL) dissolved in DMSO were added to wells containing 37.5 μL of the reaction solution (25 mM HEPES (pH 7.5), 10 mM magnesium acetate, 1 mM DTT) including 30 ng of active ASK1 protein and 1 μg of myelin basic protein (Wako), and incubated at room temperature for 5 min. To start the reaction, 10 μL of ATP solution (2.5 μM ATP, 0.1 μCi [γ-^32P]ATP) was added to wells. After incubating at room temperature for 30 min, the reaction was terminated by adding 50 μL of 20% TCA solution. The reaction solution was incubated at 4° C. for 30 min and an acid-insoluble fraction was transferred onto a GF/C filter (Packard) with Cell Harvester (Packard), and washed with 250 mM phosphoric acid. After drying at 45° C. for 60 min., 40 μL of Microscint 0 (Packard) was added and the radioactivity was measured with TopCount (Packard). The concentrations (IC50 value) of the test compounds necessary for 50% inhibition of kinase activity were calculated by PRISM 3.0 (Graphpad Software).
Target sequence in this assay (Q99683 650-1374): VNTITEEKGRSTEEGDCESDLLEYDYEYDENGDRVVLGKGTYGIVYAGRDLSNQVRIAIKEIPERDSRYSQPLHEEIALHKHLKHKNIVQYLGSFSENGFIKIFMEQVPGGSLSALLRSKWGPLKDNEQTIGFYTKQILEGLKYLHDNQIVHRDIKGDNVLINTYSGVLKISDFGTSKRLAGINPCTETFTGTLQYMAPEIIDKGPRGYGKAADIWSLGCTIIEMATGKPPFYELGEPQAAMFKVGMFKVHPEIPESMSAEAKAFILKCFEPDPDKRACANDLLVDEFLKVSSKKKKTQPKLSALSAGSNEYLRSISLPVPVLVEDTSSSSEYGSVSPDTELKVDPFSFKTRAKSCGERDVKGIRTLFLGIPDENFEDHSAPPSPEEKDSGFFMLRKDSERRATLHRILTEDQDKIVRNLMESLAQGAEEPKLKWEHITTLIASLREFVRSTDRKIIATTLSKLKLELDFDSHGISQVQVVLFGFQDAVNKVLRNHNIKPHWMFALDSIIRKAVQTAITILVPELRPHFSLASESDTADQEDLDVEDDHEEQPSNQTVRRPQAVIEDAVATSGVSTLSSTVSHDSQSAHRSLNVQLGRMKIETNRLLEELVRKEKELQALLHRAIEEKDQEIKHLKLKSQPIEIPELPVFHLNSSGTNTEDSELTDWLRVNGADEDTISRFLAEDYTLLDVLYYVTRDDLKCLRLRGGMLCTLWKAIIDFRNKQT

Assay [2] has as its target T1, ASK1. In words: Homogeneous Time-Resolved Fluorescence (HTRF) assay for inhibitory effect against ASK1 (Example C; KinEASE STK S3 kit). Format: biochemical. As to conditions: 25 nM ASK1, 100 μM ATP, read-out: Enzyme Activity C IC50.
Excerpt: as §1
Target sequence in this assay (Q99683 649-946): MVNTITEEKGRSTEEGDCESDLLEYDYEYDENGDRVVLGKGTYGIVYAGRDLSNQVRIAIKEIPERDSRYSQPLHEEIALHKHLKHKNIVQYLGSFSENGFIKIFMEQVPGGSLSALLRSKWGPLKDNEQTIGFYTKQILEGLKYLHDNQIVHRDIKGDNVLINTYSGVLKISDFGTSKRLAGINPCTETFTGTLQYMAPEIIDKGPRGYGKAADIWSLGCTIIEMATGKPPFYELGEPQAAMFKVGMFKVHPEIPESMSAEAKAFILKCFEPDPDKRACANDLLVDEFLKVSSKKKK
Homogeneous Time-Resolved Fluorescence (HTRF) Assay for Measuring the Inhibitory Effect of Exemplified Compounds of the Invention Against ASK1
Recombinant human ASK1 is purchased from Millipore (Cat #14-606). The enzymatic assay of ASK1 is set up by using HTRF® KinEASE™ STK S3 kit, the Universal Assay for Serine/Threonine Kinases kit from CisBio.
The inhibitory properties of compounds to ASK1 may be determined using a white 384-well-plate format under the following reaction conditions: 25 nM ASK1, 1 μM CisBio STK S3-biotion peptide, 100 μM ATP, and 1%-2% DMSO in kinase assay buffer of 50 mM HEPES, pH 7.3, 10 mM NaCl, 10 mM MgCl2, 0.01% Brij35, 0.2 mM EDTA, and 1 mM DTT. Reaction product is determined quantitatively by HTRF after the addition of detection reagent SA-XL665 and STK-antibody-cryptate.
The assay reaction may be initiated as follows: 2 μl of the mixture of 3 μM CisBio STK S3-biotion peptide and 300 μM ATP with 2 μl of test compound (2 fold serial dilutions for 11 data points for each inhibitor) containing 3%-6% DMSO are added to each well of the plate, followed by the addition of 2 μL of 75 nM ASK1 to initiate the reaction (final enzyme concentration was 25 nM for ASK1). The reaction mixture may then be incubated at room temperature for 1 hour, and quenched and developed by the addition of 6 μL of 100-fold diluted STK-antibody-Cryptate and 250 nM SA-XL665 in Cisbio HTRF detection buffer (50 mM HEPES, pH7.0, 0.1% BSA, 0.8 M KF, and 20 mM EDTA). The fluorescence intensity is measured at 620 nm (Cryptate) and 665 nm (XL665) after a 1-2 hour incubation at room temperature. A ratio is calculated (665/620) for each well and is fitted to the standard IC50 curve to determine inhibition constants (IC50).
On the technique in general: TR-FRET usually uses a lanthanide donor and a delayed reading to cut background.

One may read the IC50 as the midpoint of a concentration-inhibition curve. On to `Cn1cc(Br)c2cnc(NC(=O)c3ccc(C(C)(C)O)cc3)cc21` [Compound 15, N-(3-bromo-1-methyl-1H-pyrrolo[3,2-c]pyridin-6-yl)-4-(2-hydroxypropan-2-yl)benzamide], for which the IC50 amounted to 5 nM at ASK1 [1] and 10 nM on ASK1 [2].

Consider `Cn1c(Cl)c(Cl)c2cnc(NC(=O)c3ccc(C(C)(C)O)cc3)cc21` [Compound 25, N-(2,3-dichloro-1-methyl-1H-pyrrolo[3,2-c]pyridin-6-yl)-4-(2-hydroxypropan-2-yl)benzamide], for which the results for the 50% inhibitory concentration (IC50) at ASK1 [1] and on ASK1 [2] were 60 nM and 146 nM, respectively.

For `CC(C)(O)c1ccc(C(=O)Nc2cc3c(ccn3CC3CC3)cn2)cc1` [Compound 9, N-(1-(cyclopropylmethyl)-1H-pyrrolo[3,2-c]pyridin-6-yl)-4-(2-hydroxypropan-2-yl)benzamide], the IC50 is 81 nM on ASK1 [1] and 237 nM on ASK1 [2].

In the case of `Cn1cc(Cl)c2cnc(NC(=O)c3ccc(C(C)(C)O)cc3)cc21` [Compound 24, N-(3-chloro-1-methyl-1H-pyrrolo[3,2-c]pyridin-6-yl)-4-(2-hydroxypropan-2-yl)benzamide], the IC50 on ASK1 [1] amounted to 11 nM; on ASK1 [2], 18 nM.

For the compound `CC(C)(O)c1ccc(C(=O)Nc2cc3c(ccn3CS(C)(=O)=O)cn2)cc1` [Compound 21, 4-(2-hydroxypropan-2-yl)-N-(1-(methylsulfonylmethyl)-1H-pyrrolo[3,2-c]pyridin-6-yl)benzamide], the half-maximal inhibitory concentration (IC50) on ASK1 [2] was 12400 nM.

As to `C[C@](O)(CO)c1ccc(C(=O)Nc2cc3c(cn2)c(Cl)cn3C2CC2)cc1` [Compound 23, (R)—N-(3-chloro-1-cyclopropyl-1H-pyrrolo[3,2-c]pyridin-6-yl)-4-(1,2-dihydroxypropan-2-yl)benzamide], the IC50 on ASK1 [1] worked out at 4 nM; on ASK1 [2], 6 nM.

As for `Cn1cc(Br)c2cnc(NC(=O)c3ccc([C@@](C)(O)CO)cc3)cc21` [Compound 16, (R)—N-(3-bromo-1-methyl-1H-pyrrolo[3,2-c]pyridin-6-yl)-4-(1,2-dihydroxypropan-2-yl)benzamide], the IC50 at ASK1 [1] was 7 nM; at ASK1 [2], 20 nM.

In the case of `CC(C)(O)c1ccc(C(=O)Nc2cc3c(cn2)c(Br)cn3CC2CC2)cc1` [Compound 10, N-(3-bromo-1-(cyclopropylmethyl)-1H-pyrrolo[3,2-c]pyridin-6-yl)-4-(2-hydroxypropan-2-yl)benzamide], the results for the IC50 on ASK1 [1] and at ASK1 [2] were 3 nM and 62 nM, respectively.

In the case of `CCn1ccc2cnc(NC(=O)c3ccc([C@@](C)(O)CO)c(C)c3)cc21` [Compound 27, (R)-4-(1,2-dihydroxypropan-2-yl)-N-(1-ethyl-1H-pyrrolo[3,2-c]pyridin-6-yl)-3-methylbenzamide], at ASK1 [2], the half-inhibitory concentration (IC50) was 528 nM.

In the case of `CC(C)(CO)c1ccc(C(=O)Nc2cc3c(cn2)c(Cl)cn3C2CC2)cc1` [Compound 28, N-(3-chloro-1-cyclopropyl-1H-pyrrolo[3,2-c]pyridin-6-yl)-4-(1-hydroxy-2-methylpropan-2-yl)benzamide], the half-inhibitory concentration (IC50) on ASK1 [2] came out at 16 nM.

On to `Cn1c(Cl)c(Cl)c2cnc(NC(=O)c3ccc([C@@](C)(O)CO)cc3)cc21` [Compound 32, (R)—N-(2,3-dichloro-1-methyl-1H-pyrrolo[3,2-c]pyridin-6-yl)-4-(1,2-dihydroxypropan-2-yl)benzamide], for which, at ASK1 [2], the concentration for half-maximal inhibition (IC50) is 122 nM.

With `CCn1ccc2cnc(NC(=O)c3ccc([C@@](C)(O)CO)cc3)cc21` [Compound 13, (R)-4-(1,2-dihydroxypropan-2-yl)-N-(1-ethyl-1H-pyrrolo[3,2-c]pyridin-6-yl)benzamide], the concentration for half-maximal inhibition (IC50) on ASK1 [1] came to 55 nM; on ASK1 [2], 64 nM.

For the compound `Cc1cn(C)c2cc(NC(=O)c3ccc(C(C)(C)O)cc3)ncc12` [Compound 19, N-(1,3-dimethyl-1H-pyrrolo[3,2-c]pyridin-6-yl)-4-(2-hydroxypropan-2-yl)benzamide], the IC50 at ASK1 [1] was 19 nM; on ASK1 [2], 29 nM.

Regarding `CCn1cc(Cl)c2cnc(NC(=O)c3ccc([C@@](C)(O)CO)c(C)c3)cc21` [Compound 33, (R)—N-(3-chloro-1-ethyl-1H-pyrrolo[3,2-c]pyridin-6-yl)-4-(1,2-dihydroxypropan-2-yl)-3-methylbenzamide], the 50% inhibitory concentration (IC50) on ASK1 [2] amounted to 41 nM.

On to `CCn1cc(C)c2cnc(NC(=O)c3ccc([C@@](C)(O)CO)cc3)cc21` [Compound 18, (R)-4-(1,2-dihydroxypropan-2-yl)-N-(1-ethyl-3-methyl-1H-pyrrolo[3,2-c]pyridin-6-yl)benzamide], for which the figures for the IC50 at ASK1 [1] and on ASK1 [2] were 14 nM and 17 nM, respectively.

On to `CCn1cc(C)c2cnc(NC(=O)c3ccc(C(C)(C)O)cc3)cc21` [Compound 12, N-(1-ethyl-3-methyl-1H-pyrrolo[3,2-c]pyridin-6-yl)-4-(2-hydroxypropan-2-yl)benzamide], for which the IC50 at ASK1 [1] was 7 nM; on ASK1 [2], 20 nM.

As for `CCn1cc(Br)c2cnc(NC(=O)c3ccc([C@@](C)(O)CO)cc3)cc21` [Compound 20, (R)—N-(3-bromo-1-ethyl-1H-pyrrolo[3,2-c]pyridin-6-yl)-4-(1,2-dihydroxypropan-2-yl)benzamide], the IC50 was 2 nM at ASK1 [1] and 10 nM at ASK1 [2].

As for `C[C@](O)(CO)c1ccc(C(=O)Nc2cc3c(ccn3C3CC3)cn2)cc1` [Compound 17, (R)—N-(1-cyclopropyl-1H-pyrrolo[3,2-c]pyridin-6-yl)-4-(1,2-dihydroxypropan-2-yl)benzamide], the half-inhibitory concentration (IC50) on ASK1 [1] came to 69 nM; at ASK1 [2], 214 nM.

For `C[C@](O)(CO)c1ccc(C(=O)Nc2cc3c(cn2)c(Br)cn3C2CC2)cc1` [Compound 22, (R)—N-(3-bromo-1-cyclopropyl-1H-pyrrolo[3,2-c]pyridin-6-yl)-4-(1,2-dihydroxypropan-2-yl)benzamide], the 50% inhibitory concentration (IC50) on ASK1 [1] was 2 nM; at ASK1 [2] it was 7 nM.

Turning to `CCn1cc(Br)c2cnc(NC(=O)c3ccc(C(C)(C)O)cc3)cc21` [Compound 11, N-(3-bromo-1-ethyl-1H-pyrrolo[3,2-c]pyridin-6-yl)-4-(2-hydroxypropan-2-yl)benzamide], the IC50 at ASK1 [1] was found to be 3 nM; on ASK1 [2] it was 8 nM.
